According to US12653187B2, “Sulfur based pesticides” (AGRONATURALIS LTD, priority 2019, dated 2026):

Assay: Surface tension and equilibrium contact angle by drop shape analyser (Example 7)
Format: physicochemical
Method: The wetting properties of the individual surfactants and in combination were evaluated by dissolving the surfactants at various concentrations in deionised water. Surface tension and equilibrium contact angle were measured in triplicate using a drop shape analyser with results given in Table 9 below.

Row | Compound | contact angle (°) (0.005 % w/w in deionised water) | surface tension (mN/m) (0.005 % w/w in deionised water) | contact angle (°) (0.025 % w/w in deionised water) | surface tension (mN/m) (0.025 % w/w in deionised water) | contact angle (°) (0.050 % w/w in deionised water) | surface tension (mN/m) (0.050 % w/w in deionised water) | contact angle (°) (0.100 % w/w in deionised water) | surface tension (mN/m) (0.100 % w/w in deionised water) | contact angle (°) (0.200 % w/w in deionised water) | surface tension (mN/m) (0.200 % w/w in deionised water) | contact angle (°) (0.250 % w/w in deionised water) | surface tension (mN/m) (0.250 % w/w in deionised water) | contact angle (°) (0.010 % w/w in deionised water) | surface tension (mN/m) (0.010 % w/w in deionised water) | contact angle (°) (0.500 % w/w in deionised water) | surface tension (mN/m) (0.500 % w/w in deionised water)
1 | CCCCCCCCCCCCOS(=O)(=O)[O-].[Na+] [sodium lauryl sulfate] | 107.1 | 70.6 | 72.8 | 56.8 | 63.9 | 46.1 | 55.3 | 37.2 | 51.5 | 34.2 | 50.6 | 33.4 | – | – | – | –
2 | CCCCC(CC)COC(=O)CC(C(=O)OCC(CC)CCCC)S(=O)(=O)[O-].[Na+] (stereo not shown) [sodium dioctylsulfosuccinate] | 54.1 | 44.3 | 35.4 | 34.7 | 31.5 | 32.2 | 28.7 | 28.3 | 24.4 | 26.8 | 22.8 | 26.1 | 38.2 | 43.6 | 21.4 | 25.3
